Assay results taken from PMC9266914, “Broad Spectrum Functional Activity of Structurally Related Monoanionic Au(III) Bis(Dithiolene) Complexes” (International Journal of Molecular Sciences, 2022).

Legend:
Huh7 cells = experiment: Cell viability (cell confluency, Alamar Blue) of P. berghei-infected Huh7 cells; assay type: cell-based; details: 5 µM, in words
Method: The in vitro liver stage activity of gold complexes was assessed against P. berghei-infected Huh7 cells, as previously described. Briefly, Huh7 cells were cultured in RPMI-1640 medium supplemented with 10% (v/v) fetal bovine serum, 1% (v/v) penicillin/streptomycin, 1% (v/v) glutamine, 1% (v/v) non-essential amino acids and 10 mM HEPES. On the day prior to infection, Huh7 cells were seeded in 96-well plates at a density of approximately 3.1 × 10^4 cell/cm^2 and incubated at 37 °C, 5% CO2. Stock solutions of the complexes were initially prepared in DMSO and serially diluted in infection medium, i.e., culture medium supplemented with gentamicin (50 µg/mL) and fungizone (0.8 µg/mL), to obtain the test concentrations. As a control, DMSO was diluted in infection medium to a percentage that equals that of the highest compound concentrations tested. These dilutions were added to the cells in triplicates and incubated for 1 h at 37 °C, 5% CO2, after which 1 × 10^4 luciferase-expressing P. berghei sporozoites were added to each well. Plates were centrifuged at 1800× g for 5 min at room temperature and incubated for the duration of the assay. At 46 h post-infection (hpi), the impact of each compound concentration on cell viability was assessed by the Alamar Blue (Invitrogen, Buckinghamshire, UK) assay, according to the manufacturer’s recommendations. Infection was next assessed by bioluminescence, employing the Firefly Luciferase Assay Kit 2.0 (Biotium, Fremont, CA, USA), according to the manufacturer’s recommendations. For IC50 determination, nonlinear regression analysis was employed to fit the normalized results of the dose–response curves, using GraphPad Prism 8 (GraphPad software, La Jolla, CA, USA).

[1] = system: P. falciparum NF54 blood stage; experiment: In vitro activity against the blood stage of P. falciparum NF54 (SYBR green flow cytometry); assay type: cell-based, Plasmodium falciparum; details: 48 h, read-out: IC50 PfNF54
Method: Ring-stage synchronized cultures of PfNF54 at 2.5% hematocrit and at approximately 1% parasitemia were incubated with gold complexes or DMSO (vehicle control) in 96 well-plates, for 48 h, at 37 °C in a 5% CO2 and 5% O2 atmosphere. Stock solutions of Chloroquine (positive control), [P][AuSEt(=S)] and [P][AuSEt(=Se)] were prepared in DMSO. Working solutions were prepared from the stock solutions in complete malaria culture medium (CMCM), which consists of RPMI 1640 supplemented with 25 mM HEPES, 2.4 mM L-glutamine, 50 μg/mL gentamicin, 0.5% w/v Albumax, 11 mM glucose, 1.47 mM hypoxanthine and 37.3 mM NaHCO3. For each measurement, 5 µL of the culture (approximately 800,000 cells) was stained with the DNA-specific dye SYBR green I at 1×. After 20 min of incubation, in the dark, the stained sample was analyzed by flow cytometry. For each flow cytometric measurement, approximately 100,000 events were analyzed. All samples were analyzed in triplicate and two independent experiments were performed.

[2] = target: T1, thioredoxin reductase (TrxR) (Rattus norvegicus, UniProt O89049); experiment: Thioredoxin reductase inhibition, colorimetric DTNB assay; assay type: biochemical; details: 0.1 nM–2 µM
T1 construct: purchased Sigma-Aldrich
T1 sequence (O89049 1-499): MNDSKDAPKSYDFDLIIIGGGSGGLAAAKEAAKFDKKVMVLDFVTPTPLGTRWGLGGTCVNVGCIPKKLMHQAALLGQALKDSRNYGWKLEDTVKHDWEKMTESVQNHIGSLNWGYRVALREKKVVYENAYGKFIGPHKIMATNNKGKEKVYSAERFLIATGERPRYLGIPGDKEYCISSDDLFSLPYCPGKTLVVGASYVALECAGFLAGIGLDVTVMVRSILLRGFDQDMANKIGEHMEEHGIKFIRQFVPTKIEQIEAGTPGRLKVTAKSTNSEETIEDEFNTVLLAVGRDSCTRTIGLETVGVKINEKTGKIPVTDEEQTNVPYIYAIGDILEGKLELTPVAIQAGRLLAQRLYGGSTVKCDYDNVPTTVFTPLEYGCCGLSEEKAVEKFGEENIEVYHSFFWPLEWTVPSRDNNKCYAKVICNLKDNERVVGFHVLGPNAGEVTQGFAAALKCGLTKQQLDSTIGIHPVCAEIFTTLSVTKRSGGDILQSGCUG
Method: The effect of the selected gold complexes on the activity of TrxR was evaluated by a colorimetric DTNB assay as previously described. […] The substituent on the nitrogen atom of the thiazoline ring ([P][AuSEt(=S)] vs. [P][AuSBu(=S)]) and the nature of the exocyclic atom ([P][AuSEt(=S)] vs. [P][AuSEt(=Se)]) seemed to influence the inhibitory effect on the enzyme. The exocyclic selenium atoms of [P][AuSEt(=Se)] seemed to disfavor the intermolecular interaction with the enzyme in relation with the peripheral thione group of [P][AuSEt(=S)].
The […] (TrxR) inhibition assays were performed using a commercial kit from Sigma-Aldrich, introducing minor modifications for a 96-well plate format. The assay is based on the reduction of DTNB (5,5′ dithiobis(2-nitrobenzoic acid)) into TNB (5-thio-2-nitrobenzoic acid) with the concomitant oxidation of NADPH, in a reaction catalyzed by TrxR [92]. The complexes were dissolved in DMSO to prepare serial concentrations in the range of 0.1 nM–2 µM. The reaction mixture (200 µL total volume) contained 11 μL assay buffer (phosphate buffer, pH 7.0 and 50 mM EDTA), 180 µL working buffer (phosphate buffer and 0.25 mM NADPH), 1 μL complexes’ solutions, 2 μL enzyme solution and 6 µL DTNB (0.1 M in DMSO). […] The formation of TNB was monitored at 412 nm with a plate spectrophotometer (Power Wave Xs, Bio-Tek).

SMILES | toxicity seen as lower cell confluency (Huh7 cells) | IC50 [1] | IC50 [2]
CCn1c2c(sc1=S)[S][Au-]1([S]c3sc(=S)n(CC)c3[S]1)[S]2.c1ccc([P+](c2ccccc2)(c2ccccc2)c2ccccc2)cc1 [[P][AuSEt(=S)]] | some degree of toxicity | 1060 ± 393 nM | –
CCn1c2c(sc1=[Se])[S][Au-]1([S]c3sc(=[Se])n(CC)c3[S]1)[S]2.c1ccc([P+](c2ccccc2)(c2ccccc2)c2ccccc2)cc1 [[P][AuSEt(=Se)]] | some degree of toxicity | 1000 ± 391 nM | –
CC(=O)OC[C@H]1O[C@@H]([S-])[C@H](OC(C)=O)[C@@H](OC(C)=O)[C@@H]1OC(C)=O.CCP(CC)CC.[Au+] [Auranofin, reference compound] | – | – | 26 ± 10 nM
